Experimental data: patent US11285226B2, “Aryl ethene derivative and pharmaceutical composition containing same as active ingredient” (priority 2016, dated 2022)

Columns and labels:
[1] = system: ERRγ; format: cell-based; settings: for Functional Assay, Cpds/Ref 5182: activity relative to reference compound GSK5182; for Functional Assay at 10 μM (% of control), Cpds: AD293, 24 hours
Procedure: AD293 was cultured in a 24-well plate for 24 hours, using a DMEM High glucose culture medium (Hyclone, USA) to which 0.5% FBS was added at a concentration of 9×10^4/well. The culture medium was replaced with a DMEM High glucose culture medium to which 10% FBS was added, treatment was performed with a mixture of a TransIT-LT1 transfection reagent (Minis, USA) and pCMX-Gal4-ERRγ, pFR-luciferase reporter plasmid, pCMV-β-gal, and culturing was performed for 24 hours. Thereafter, a luciferase activity assay and a β-gal assay were performed, respectively, with a lysate obtained after treatment with the arylethene derivative of the present invention for 24 hours. All results were derived from three or more independent repetitive experiments.

[2] = target: CYP1A2 (Homo sapiens (Human), UniProt P05177); assay: Cytochrome P450 activity inhibition, CYP1A2; format: in vitro ADME; settings: 10 μM, human liver microsomes
Sequence of CYP1A2 (P05177 whole entry): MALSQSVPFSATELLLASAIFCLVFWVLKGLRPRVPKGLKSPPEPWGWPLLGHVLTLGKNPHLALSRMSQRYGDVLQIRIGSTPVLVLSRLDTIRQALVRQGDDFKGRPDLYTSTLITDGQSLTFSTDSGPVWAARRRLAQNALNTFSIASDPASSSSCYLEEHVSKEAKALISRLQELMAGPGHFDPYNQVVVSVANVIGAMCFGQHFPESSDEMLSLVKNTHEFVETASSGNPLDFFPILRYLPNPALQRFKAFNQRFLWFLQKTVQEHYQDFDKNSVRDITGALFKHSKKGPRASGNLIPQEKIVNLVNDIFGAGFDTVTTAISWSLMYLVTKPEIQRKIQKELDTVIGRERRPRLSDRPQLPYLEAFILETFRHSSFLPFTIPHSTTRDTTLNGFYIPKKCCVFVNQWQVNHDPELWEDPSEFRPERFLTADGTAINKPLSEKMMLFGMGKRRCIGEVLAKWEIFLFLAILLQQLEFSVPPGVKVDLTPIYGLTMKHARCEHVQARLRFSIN
Source text: (§1) 1) Cytochrome P450 (CYP450) Activity Inhibition Evaluation

[3] = target: CYP2C9 (Homo sapiens (Human), UniProt P11712); assay: Cytochrome P450 activity inhibition, CYP2C9; format: in vitro ADME; settings: 10 μM, human liver microsomes
Sequence of CYP2C9 (P11712 whole entry): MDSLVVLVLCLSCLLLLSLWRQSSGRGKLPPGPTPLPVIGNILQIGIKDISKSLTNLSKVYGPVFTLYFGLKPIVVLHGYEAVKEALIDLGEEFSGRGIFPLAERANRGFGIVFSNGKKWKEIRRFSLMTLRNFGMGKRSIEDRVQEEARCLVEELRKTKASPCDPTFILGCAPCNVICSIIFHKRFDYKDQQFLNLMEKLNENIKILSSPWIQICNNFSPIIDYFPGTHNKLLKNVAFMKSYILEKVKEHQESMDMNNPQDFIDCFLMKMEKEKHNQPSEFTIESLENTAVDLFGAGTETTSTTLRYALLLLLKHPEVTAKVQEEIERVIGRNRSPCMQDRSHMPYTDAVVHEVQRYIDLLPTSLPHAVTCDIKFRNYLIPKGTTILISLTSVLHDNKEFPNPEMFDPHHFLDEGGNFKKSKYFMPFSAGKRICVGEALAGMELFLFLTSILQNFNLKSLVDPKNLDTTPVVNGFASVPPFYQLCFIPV
Source text: as §1

[4] = target: CYP2C19 (Homo sapiens (Human), UniProt P33261); assay: Cytochrome P450 activity inhibition, CYP2C19; format: in vitro ADME; settings: 10 μM, human liver microsomes
Sequence of CYP2C19 (P33261 whole entry): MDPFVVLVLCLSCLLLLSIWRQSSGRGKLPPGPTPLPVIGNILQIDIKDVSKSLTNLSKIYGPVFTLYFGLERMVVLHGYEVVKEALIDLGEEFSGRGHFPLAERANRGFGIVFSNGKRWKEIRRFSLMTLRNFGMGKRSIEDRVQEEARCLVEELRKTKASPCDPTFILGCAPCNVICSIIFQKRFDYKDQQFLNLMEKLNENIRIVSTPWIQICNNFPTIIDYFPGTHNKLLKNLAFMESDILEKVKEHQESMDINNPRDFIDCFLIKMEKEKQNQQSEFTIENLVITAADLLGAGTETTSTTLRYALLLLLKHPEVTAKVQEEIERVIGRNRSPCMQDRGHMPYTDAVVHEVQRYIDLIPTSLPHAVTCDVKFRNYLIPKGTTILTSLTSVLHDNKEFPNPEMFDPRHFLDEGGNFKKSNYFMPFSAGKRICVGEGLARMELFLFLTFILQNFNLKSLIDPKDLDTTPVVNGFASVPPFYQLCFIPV
Source text: as §1

[5] = target: CYP2D6 (Homo sapiens (Human), UniProt P10635); assay: Cytochrome P450 activity inhibition, CYP2D6; format: in vitro ADME; settings: 10 μM, human liver microsomes
Sequence of CYP2D6 (P10635 whole entry): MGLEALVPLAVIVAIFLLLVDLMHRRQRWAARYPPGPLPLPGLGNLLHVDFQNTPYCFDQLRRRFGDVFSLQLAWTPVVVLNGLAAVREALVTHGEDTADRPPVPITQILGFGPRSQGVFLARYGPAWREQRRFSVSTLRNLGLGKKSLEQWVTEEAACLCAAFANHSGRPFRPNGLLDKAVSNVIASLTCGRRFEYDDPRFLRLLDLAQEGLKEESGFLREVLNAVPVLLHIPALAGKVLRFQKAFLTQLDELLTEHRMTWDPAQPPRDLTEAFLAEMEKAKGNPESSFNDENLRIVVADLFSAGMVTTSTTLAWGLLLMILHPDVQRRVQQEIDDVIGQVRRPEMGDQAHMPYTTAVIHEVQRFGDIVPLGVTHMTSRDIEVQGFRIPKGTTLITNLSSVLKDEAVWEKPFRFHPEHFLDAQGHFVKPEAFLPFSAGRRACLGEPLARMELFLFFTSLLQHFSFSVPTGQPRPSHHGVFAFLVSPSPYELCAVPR
Source text: as §1

[6] = target: CYP3A4 (Homo sapiens (Human), UniProt P08684); assay: Cytochrome P450 activity inhibition, CYP3A4; format: in vitro ADME; settings: 10 μM, human liver microsomes
Sequence of CYP3A4 (P08684 whole entry): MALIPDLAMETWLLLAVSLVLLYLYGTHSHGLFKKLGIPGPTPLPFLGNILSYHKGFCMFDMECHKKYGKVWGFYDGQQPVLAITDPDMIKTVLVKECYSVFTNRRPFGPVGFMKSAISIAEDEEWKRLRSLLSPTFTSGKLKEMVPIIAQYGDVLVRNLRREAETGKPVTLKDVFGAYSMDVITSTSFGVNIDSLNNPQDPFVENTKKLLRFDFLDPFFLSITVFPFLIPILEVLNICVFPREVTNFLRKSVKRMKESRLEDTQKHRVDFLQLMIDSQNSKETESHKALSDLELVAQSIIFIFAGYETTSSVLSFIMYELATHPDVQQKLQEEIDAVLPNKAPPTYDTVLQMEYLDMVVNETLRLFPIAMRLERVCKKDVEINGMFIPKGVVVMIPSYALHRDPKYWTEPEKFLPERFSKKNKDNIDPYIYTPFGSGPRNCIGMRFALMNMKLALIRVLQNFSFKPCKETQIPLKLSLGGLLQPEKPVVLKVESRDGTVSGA
Procedure: Thereafter, in order to complete the reaction, an acetonitrile solution containing an internal standard material (Terfenadine) was added thereto, centrifugation (14,000 rpm, 4° C.) was performed for 5 minutes, and a supernatant was injected into a LC-MS/MS system to analyze the metabolites of the substrate drug, thereby evaluating drug metabolism enzyme inhibition by the arylethene derivative of the present invention.

[7] = format: in vitro ADME, human; settings: 1 μM, 30 minutes, 37° C.
Procedure: 2) Microsomal Stability Evaluation
Four liver microsomes (Human, Dog, Rat, Mouse 0.5 mg/ml) with a 0.1 M phosphate buffer solution (pH 7.4), and the arylethene derivative of the present invention were added to a concentration of 1 μM, culturing was performed at 37° C. for 5 minutes in advance, a NADPH regeneration system solution was added thereto, and culturing was performed at 37° C. for 30 minutes. Thereafter, in order to complete the reaction, an acetonitrile solution containing an internal standard material (chlorpropamide) was added thereto, centrifugation (14,000 rpm, 4° C.) was performed for 5 minutes, and a supernatant was injected into a LC-MS/MS system to analyze the substrate drug, thereby evaluating metabolism stability to the arylethene derivative of the present invention.

[8] = format: in vivo; settings: rat, IV 1 mg/kg
Procedure: An oral administration group fasts the day before.
Blood of each animal is collected at 0 hour.
Into a tail vein of an intravenous administration group (IV), a drug is injected at a dose of 1 mg/kg (syringe).
To an oral administration group (PO), a drug is orally administered at a dose of 10 mg/kg (oral zondec)
After administration, blood of the intravenous administration group was collected through a jugular vein 8 times at 0.08, 0.25, 0.5, 1, 2, 4, 6, and 8 hours. One collected blood amount is 400 to 500 ul.
After administration, blood of the oral administration group was collected through a jugular vein 6 times at 0.25, 0.5, 1, 4, 6 and 8 hours. One collected blood amount is 400 to 500 ul.
Supernatant plasma is collected by a centrifuge.
The supernatant plasma was injected into a LC-MS/MS system and the drug is analyzed.

Row | SMILES | Functional Assay, Cpds/Ref 5182 [1] | CYP inhibition (% of control) 1A2 [2] | CYP inhibition (% of control) 2C9 [3] | CYP inhibition (% of control) 2C19 [4] | CYP inhibition (% of control) 2D6 [5] | CYP inhibition (% of control) 3A4 [6] | also measured
1 | Cc1ccc(/C(=C(\CCCO)c2ccccc2)c2ccc(N3CCN(C)CC3)cc2)cc1 [Compound 18f] | 0.82 | >100 % of control |  |  |  |  | 
2 | CC(C)(C)OC(=O)N1CCN(c2ccc(/C(=C(/CCCO)c3ccccc3)c3ccc(Br)cc3)cc2)CC1 [Compound 18n] | 0.82 |  |  |  |  |  | 
3 | OCCC/C(=C(\c1ccc(O)cc1)c1ccc(C2CN(C3CC3)C2)cc1)c1ccccc1 [Compound 22d] | 0.62 | >100 % of control | >100 % of control | >100 % of control |  |  | 
4 | CC(C)N1CCN(c2ccc(/C(=C(/CCCO)c3ccccc3)c3ccc([N+](=O)[O-])cc3)cc2)CC1 [Compound 18g] | 0.84 |  |  |  |  |  | 
5 | CCN1CCN(c2ccc(/C(=C(/CCCO)c3ccccc3)c3ccc(O)cc3)cc2)CC1 [Compound 18i] | 0.97 |  |  |  |  |  | 
6 | OCCC/C(=C(\c1ccc(O)cc1)c1ccc(OCCN2CCCC2)cc1)c1ccccc1 [Compound 6e] |  | 79.6 % of control | 51.6 % of control | 64.1 % of control | 80.6 % of control | 68.1 % of control | 
7 | CN1CCN(c2ccc(/C(=C(/CCCOC(=O)C(C)(C)C)c3ccccc3)c3ccc(OC(=O)C(C)(C)C)cc3)cc2)CC1 [Compound 28g] |  |  |  |  |  |  | Functional Assay at 10 μM (% of control), Cpds [1]: 5.1 % of control
8 | OCCC/C(=C(\c1ccc(O)cc1)c1ccc(OCCN2CCOCC2)cc1)c1ccccc1 [Compound 6c] |  | 91.9 % of control | 77.9 % of control | 81.6 % of control | 96.4 % of control | 81.3 % of control | 
9 | CC(C)N1CCN(c2ccc(/C(=C(/CCCO)c3ccccc3)c3ccc(Br)cc3)cc2)CC1 [Compound 18h] |  |  |  |  |  |  | MS (Microsomal Stability) (%) human [7]: >100%
10 | Cc1ccc(/C(=C(\CCCO)c2ccccc2)c2ccc(C3CN(C(C)C)C3)cc2)cc1 [Compound 22e] | 0.61 |  |  |  |  |  | 
11 | OCCC/C(=C(\c1ccc(Br)cc1)c1ccc(N2CCNCC2)cc1)c1ccccc1 [Compound 20a, (E)-5-(4-bromophenyl)-4-phenyl-5-(4-(piperazin-1-yl)phenyl)pent-4-en-1-ol] |  | 85 % of control | 76 % of control | 61.9 % of control | 70.7 % of control | 55 % of control | 
12 | OCCC/C(=C(\c1ccc(O)cc1)c1ccc(C2=CCN(C3CC3)CC2)cc1)c1ccccc1 [Compound 22j] |  |  | 88 % of control |  |  | 85 % of control | 
13 | CN1CCCC1CCOc1ccc(/C(=C(/CCCO)c2ccccc2)c2ccc(O)cc2)cc1 (centres unmarked) [Compound 6g] | 1.60 | 97.8 % of control | 75.4 % of control | 81.8 % of control | 81.7 % of control | 83.7 % of control | 
14 | OCCC/C(=C(\c1ccc(O)cc1)c1ccc(N2CCNCC2)cc1)c1ccccc1 [Compound 20c] | 0.93 |  |  |  |  |  | 
15 | CN1CCN(c2ccc(/C(=C(/CCCO)c3ccccc3)c3ccc([N+](=O)[O-])cc3)cc2)CC1 [Compound 18c] | 0.42 |  |  | 80 % of control |  |  | 
16 | CC(C)N1CCC(c2ccc(/C(=C(/CCCO)c3ccccc3)c3ccc(N)cc3)cc2)CC1 [Compound 26c] | 4.80 |  |  |  |  |  | 
17 | C[Si](C)(CN1CCCC1)c1ccc(/C(=C(/CCCO)c2ccccc2)c2ccc(O)cc2)cc1 [Compound 42c] | 0.89 |  |  |  |  |  | Functional Assay at 10 μM (% of control), Cpds [1]: 2.6 % of control
18 | CN1CCC[C@@H]1COc1ccc(/C(=C(/CCCO)c2ccccc2)c2ccc(O)cc2)cc1 [Compound 6i] |  | 98.1 % of control | 86.7 % of control | 82.6 % of control | 93.6 % of control | 79.4 % of control | 

Row | SMILES | Functional Assay, Cpds/Ref 5182 [1] | CYP inhibition (% of control) 1A2 [2] | CYP inhibition (% of control) 2C9 [3] | CYP inhibition (% of control) 2C19 [4] | CYP inhibition (% of control) 2D6 [5] | CYP inhibition (% of control) 3A4 [6] | also measured
19 | CN1CCN(c2ccc(/C(=C(/CCCO)c3ccccc3)c3ccc(N)cc3)cc2)CC1 [Compound 26a, (Z)-5-(4-aminophenyl)-5-(4-(4-methylpiperazin-1-yl)phenyl)-4-phenylpent-4-en-1-ol] | 0.84 | >100 % of control | 53.2 % of control | 89 % of control | 85.5 % of control | 75.4 % of control | 
20 | OCCC/C(=C(\c1ccc(O)cc1)c1ccc(C2CCN(C3CC3)CC2)cc1)c1ccccc1 [Compound 22i] |  |  |  |  |  |  | MS (Microsomal Stability) (%) human [7]: 36.0%
21 | CC(C)N1CCN(c2ccc(/C(=C(/CCCO)c3ccccc3)c3ccc(OS(C)(=O)=O)cc3)cc2)CC1 [Compound 28a, (E)-4-(5-hydroxy-1-(4-(4-isopropylpiperazin-1-yl)phenyl)-2-phenylpent-1-en-1-yl)phenyl methanesulfonate] | 1.20 |  |  |  |  |  | 
22 | CC(C)(C)OC(=O)N1CC(c2ccc(/C(=C(/CCCO)c3ccccc3)c3ccc(O)cc3)cc2)C1 [Compound 18t, tert-butyl (E)-3-(4-(5-hydroxy-1-(4-hydroxyphenyl)-2-phenylpent-1-en-1-yl)phenyl)azetidine-1-carboxylate] |  | 100 % of control | 83 % of control | 93 % of control | 98 % of control | 106 % of control | 
23 | CN1CCC[C@H]1CCOc1ccc(/C(=C(/CCCO)c2ccccc2)c2ccc(O)cc2)cc1 [Compound 6j] | 0.77 | 98.7 % of control | 85.6 % of control | 89.1 % of control | 85.2 % of control | 74.6 % of control | 
24 | CN1CCCC1CCOc1ccc(/C(=C(/CCCO)c2ccccc2)c2ccc(Br)cc2)cc1 (centres unmarked) [Compound 13d] |  | >100 % of control | 97 % of control | 89.4 % of control | >100 % of control | 90.2 % of control | 
25 | CC(C)N1CCC(c2ccc(/C(=C(/CCCO)c3ccccc3)c3cccc(O)c3)cc2)CC1 [Compound 22h] |  | >100 % of control |  | >100 % of control |  |  | 
26 | CCN1CCC(c2ccc(C(=C(CCCO)c3ccccc3)c3cccc(O)c3)cc2)CC1 [Compound 22ae] |  |  | >100 % of control | >100 % of control |  |  | 
27 | CN1CCC[C@@H]1CCOc1ccc(/C(=C(/CCCO)c2ccccc2)c2ccc(O)cc2)cc1 [Compound 6k] | 0.79 |  |  |  |  |  | 
28 | OCCC/C(=C(\c1ccc(O)cc1)c1ccc(OCCN2CCC[C@@H]2CO)cc1)c1ccccc1 [Compound 38c] | 0.99 |  |  |  |  |  | 
29 | CN1CCN(c2ccc(/C(=C(/CCCOC(=O)C(C)(C)C)c3ccccc3)c3ccc(O)cc3)cc2)CC1 [Compound 28f] | 0.98 |  |  |  |  |  | Functional Assay at 10 μM (% of control), Cpds [1]: 4 % of control
30 | OCCC/C(=C(\c1ccc(O)cc1)c1ccc(N2CCN(C3CCC3)CC2)cc1)c1ccccc1 [Compound 22q] |  |  |  |  |  | 81 % of control | 
31 | CN1CCC(c2ccc(/C(=C(/CCCO)c3ccccc3)c3cccc(O)c3)cc2)CC1 [Compound 22ac] |  | >100 % of control | >100 % of control | >100 % of control |  | 85 % of control | 
32 | OCCC/C(=C(\c1ccc(O)cc1)c1ccc(OCCN2CCC3(CCNC3)C2)cc1)c1ccccc1 (centres unmarked) [Compound 39, (Z)-4-(1-(4-(2-(2,7-diazaspiro[4.4]nonan-2-yl)ethoxy)phenyl)-5-hydroxy-2-phenylpent-1-en-1-yl)phenol] |  | 82.5 % of control | 74.4 % of control | 73.9 % of control | 67.8 % of control | 59 % of control | 
33 | O=C(CN1CCCCC1)Nc1ccc(/C(=C(/CCCO)c2ccccc2)c2ccc(O)cc2)cc1 [Compound 44, (E)-N-(4-(5-hydroxy-1-(4-hydroxyphenyl)-2-phenylpent-1-en-1-yl)phenyl)-2-(piperidin-1-yl)acetamide] |  |  |  |  |  |  | AUCINF [8]: 0.34 μMh; AUCall [8]: 0.28 μMh; Cl(observed)/F [8]: 139 mL/min/kg; Vss [8]: 52.8 L/kg; t1/2 [8]: 4.4 h
34 | CN1CCN(c2ccc(/C(=C(/CCCO)c3ccccc3)c3ccc(O)cc3)cc2)CC1 [Compound 18d] | 0.97 | 88 % of control |  |  |  | 64 % of control | 
35 | OCCC/C(=C(/c1ccc(C2=CCN(C3CC3)CC2)cc1)c1cccc(O)c1)c1ccccc1 [Compound 22l] |  |  |  | 97 % of control | 99 % of control |  | 
